# Data: US8697662B2, “Methods for treating Kaposi sarcoma” (PTC Therapeutics, Inc., priority 2009, dated 2014)
# pEC50: −log10 of the molar value.
# Assays:
# [1] = system: hypoxia-inducible endogenous VEGF expression; experiment: Hypoxia-inducible endogenous VEGF expression ELISA in HeLa cells, dose-response EC50 (Table 3); format: cell-based; details: Homo sapiens, hypoxic conditions (1% O2), VEGF ELISA of conditioned media
# Procedure: The ability of the Compounds to modulate hypoxia-inducible endogenous VEGF expression may be analyzed as follows. VEGF protein levels may be monitored by an ELISA assay (R&D Systems). Briefly, HeLa cells may be cultured for 24-48 hours under hypoxic conditions (1% O2, 5% CO2, balanced with nitrogen) in the presence or absence of a Compound. The conditioned media may then be assayed by ELISA, and the concentration of VEGF calculated from the standard ELISA curve of each assay.
# A dose-response analysis may be performed using the ELISA assay and conditions described above. The conditions for the dose-response ELISA are analogous to those described above. A series of, e.g., seven different concentrations may be analyzed. In parallel, a dose-response cytotoxicity assay may be performed using Cell Titer Glo (Promega) under the same conditions as the ELISA to ensure that the inhibition of VEGF expression was not due to the cytotoxicity.
# HT1080 cells = experiment: Cell cycle analysis by propidium iodide flow cytometry in HT1080 cells (S-phase accumulation, Table 24); format: cell-based, human; details: same tumor cells; data not shown
# Procedure: Experimental Design. […] After treatment, cells were trypsinized, and stained with propidium iodide (PI) dye to measure DNA content of individual cells by flow cytometry. Output comprised histograms showing relative DNA content in 10,000 cells.
# While compounds which cause greater than 20% of the cells to accumulate in S-phase at 100 nM are considered active, a larger percentage of cells may be accumulated in S-phase at lower doses depending on the Compound, as shown in FIG. 12 for example.
# [2] = system: KS-like angioproliferative lesions; details: nude mice, doses similar to AIDS patients; cited from earlier work
# [3] = system: primary endothelial cells; details: in-vitro; cited from earlier work
# HT1080 xenografts [4] = experiment: Time course of tumor size and plasma human VEGF in HT1080 xenografts; format: in vivo, athymic nude mice; details: by Day 1
# Procedure: (§1) Experimental Design. HT1080 cells (5×10^6 cells/mouse) were implanted subcutaneously in male athymic nude mice.
# Tumor size was measured by calipers immediately pre-treatment and at the time of sacrifice on Day 1, 2, or 3 (5 mice per group per day). At sacrifice, the plasma was collected for assay of pathologic human VEGF concentration using an ELISA that recognizes human VEGF121 and VEGF165 (as described in Section 9.1.1.1).
# HT1080 xenografts [5] = experiment: BrdU labeling of tumor cells from HT1080 xenografts in vivo; design: species or system athymic nude mice; details: HT1080 xenografts, 1, 2, or 3 days of treatment
# Procedure: as §1
# The mice were sacrificed 3 hours later, and the tumors collected. A single cell suspension was prepared from the tumor cells. The cells were permeabilized and an antibody to BrdU was used to stain cells that had entered S phase during the labeling period. The proportion of cells actively synthesizing DNA was determined by cell sorting.
smiles,measurement,setting,value
CC(CO)(CO)COc1ccc([C@H]2c3[nH]c4ccc(Cl)cc4c3CCN2C(=O)Oc2ccc(F)cc2)cc1 [Compound 1335],pEC50,[1]; 24-48 hours,7.40 to 8.10
"NC(Cn1ccc(=O)c(O)c1)C(=O)O (stereo not drawn) [mimosine, reference compound]",effect on cell cycle (and VEGF production) (in words),HT1080 cells,does not delay or prolong the cell cycle or reduce VEGF production
CC(C)(C)NC(=O)[C@@H]1C[C@@H]2CCCC[C@@H]2CN1C[C@@H](O)[C@H](Cc1ccccc1)NC(=O)[C@H](CC(N)=O)NC(=O)c1ccc2ccccc2n1 [saquinavir],macroscopic KS-like angioproliferative lesions (in words),[2],reduction in the number and size
CC(C)c1nc(CN(C)C(=O)N[C@H](C(=O)N[C@@H](Cc2ccccc2)C[C@H](O)[C@H](Cc2ccccc2)NC(=O)OCc2cncs2)C(C)C)cs1 [ritonavir],activation and proliferation of primary endothelial cells (in words),[3],inhibition of activation and proliferation
same,"production of TNF-α, IL-6, IL-8 and VEGF (in words)",[3],decreased production
CC(C)(C)NC(=O)[C@@H]1CN(Cc2cccnc2)CCN1C[C@@H](O)C[C@@H](Cc1ccccc1)C(=O)N[C@H]1c2ccccc2C[C@H]1O [indinavir],macroscopic KS-like angioproliferative lesions (in words),[2],reduction in the number and size
NC(=O)COc1ccc(C2c3[nH]c4ccc(Cl)cc4c3CCN2C(=O)Oc2ccc(Cl)cc2)cc1 (stereo not drawn) [Compound 1161],pEC50,[1],> 8.10
"COc1cccc2c1C(=O)c1c(O)c3c(c(O)c1C2=O)C[C@@](O)(C(=O)CO)C[C@@H]3O[C@H]1C[C@H](N)[C@H](O)[C@H](C)O1 [doxorubicin, reference compound]",pathologic plasma human VEGF levels (in words),HT1080 xenografts [4],numerically lower than in control animals
same,BrdU staining of tumor cells (fraction in S phase) (in words),HT1080 xenografts [5],decreased the percentage of tumor cells staining with BrdU
